# Results taken from US4148795A, “Dithiocarbamate ester bactericides and fungicides” (American Cyanamid Company, priority 1976, dated 1979).
# Several values for one entry are separate records, joined by “and”; a condition that tells them apart may be missing. Identical values can stand only once. Like-named read-outs stand apart in the source and are kept apart here.
# Legend:
# Aspergillus niger [1] = experiment: Spore germination inhibition; type: cell-based; settings: 24 hours
# Method in brief: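 Test compound is suspended in water at 100, 10 or 1 ppm. and dispensed into one dram "opticlear" vials. Each vial receives one drop of a spore suspension taken from seven-day Aspergillus niger cultures grown on potato-dextrose agar. Capped vials rotate on a tumbler for 24 hours, then are inspected for inhibition of mycelial growth.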
# Monilinia fructicola [2] = experiment: Spore germination inhibition; type: cell-based; settings: for inhibition at 1 ppm / inhibition at 10 ppm: 24 hours; for inhibition at 100 ppm: 24 h, read-out: % Inhibition of Spore Germination
# Method in brief: (§1)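 Test compounds were suspended in water at 100, 10 or 1 ppm and inoculated with spore suspensions from 7-day (A. niger) or 14-day potato-dextrose agar cultures. Vials were tumbled for 24 hours and then examined for inhibition of mycelial growth.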
# [3] = system: Stemphylium sarcinaeforme; experiment: Spore germination inhibition; type: cell-based; settings: Stemphylium sarciniforme; for inhibition at 100 ppm: 24 h, read-out: % Inhibition of Spore Germination; for inhibition at 1 ppm / inhibition at 10 ppm: 24 hours
# Method in brief: as §1
# Aerobacter aerogenes = type: cell-based; settings: 100 ppm; subcultures 72 hours at 37° C; also: key: 0: No Effect; 9: Kill of Bacteria; 5: Stasis, but not Kill of all Bacteria
# Staphylococcus aureus = type: cell-based; settings: 100 ppm; subcultures 72 hours at 37° C; also: key: 0: No Effect; 9: Kill of Bacteria; 5: Stasis, but not Kill of all Bacteria
# Xanthomonas vesicatoria = type: cell-based; settings: 100 ppm; subcultures 72 hours at 37° C; also: key: 0: No Effect; 9: Kill of Bacteria; 5: Stasis, but not Kill of all Bacteria
# Aspergillus niger [4] = experiment: Agar dilution plate; type: cell-based; settings: An; 100 ppm, 72 hours at 23° C
# Method in brief: (§2)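 Fungal inoculum on Sabouraud's dextrose agar dosed at approx. 100 ppm compound, 23° C for ~72 h. Growth rated 0 = no control, 5 = 100% effectiveness.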
# Fusarium lycopersici = experiment: Agar dilution plate; type: cell-based; settings: Fl; 100 ppm, 72 hours at 23° C
# Method in brief: as §2
# Monilinia fructicola [5] = experiment: Agar dilution plate; type: cell-based; settings: Mf; 100 ppm, 72 hours at 23° C
# Method in brief: as §2
# Pythium de Baryanum = experiment: Agar dilution plate; type: cell-based; settings: Pd; 100 ppm, 72 hours at 23° C
# Method in brief: as §2
# Rhizoctonia solani = experiment: Agar dilution plate; type: cell-based; settings: Rs; 100 ppm, 72 hours at 23° C
# Method in brief: as §2
# [6] = system: Stemphylium sarcinaeforme; experiment: Agar dilution plate; type: cell-based; settings: Ss; 100 ppm, 72 hours at 23° C
# Method in brief: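 Compound incorporated into Sabouraud's dextrose agar at about 100 ppm, inoculated with Stemphylium sarcinaeforme and incubated about 72 hours at 23 °C. Growth scored 0 (no control) or 5 (100% effectiveness), test run in repeat.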
# Pseudomonas solaracaerum = type: cell-based; settings: 100 ppm, 72 hours at 23° C; also: key: 0: no control; 5: 100% effectiveness of the test compound against the specified organism
# [7] = system: Collectotrichum lagenarium; experiment: Agar dilution plate; type: cell-based; settings: Cl; 100 ppm, 72 hours at 23° C
# Method in brief: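 Compounds were incorporated at about 100 ppm in Sabouraud's dextrose agar, inoculated, and incubated about 72 h at 23 °C. Growth was scored 0 (no control) or 5 (100% effectiveness), and the test was repeated twice.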
# Verticillium albo-atrum = experiment: Agar dilution plate; type: cell-based; settings: Va; 100 ppm, 72 hours at 23° C
# Method in brief: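 Compounds incorporated at about 100 ppm into Sabouraud's dextrose agar, then inoculated with the fungus and incubated about 72 hours at 23° C. Growth scored as 0 (no control) or 5 (100% effectiveness); test repeated twice.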
# [8] = system: Colletotrichum lagenarium; settings: in vivo; also: key: 5: clean, no disease; 4: trace of disease; 3: slight disease; 2: moderate disease; 1: severe disease; 0: like controls
# Piricularia oryzae = type: in vivo; parameters: scale not given here; settings: Rice Blast, five days
# Venturia inaequalis [9] = settings: in vivo
# Phytophthora infestans = type: in vivo; parameters: scale not given here; settings: Tomato Late Blight, five days
# Venturia inaequalis [10] = experiment: Apple scab on field-grown trees; type: in vivo; settings: 50% wettable powder
# Description: Apple Scab (Venturia inaequalis)
# (§3) The compound of Example 13 was applied as a foliar spray for ten applications at weekly intervals from May 1 through July 2, and then two more sprays on a two-week schedule ending on July 31.
# (§4) The active compound was applied as a 50% wettable powder having the following composition:
# 50% Active Compound (Example 13 )
# (§5) Rates of 50% wettable applied were:
# (§6) 2 pounds/100 gallons of water
# (§7) 1 pound/100 gallons of water
# (§8) Three tree replicates of each rate
# (§9) Variety: Red Delicious were used.
# [11] = system: Red Delicious apple trees; experiment: Phytotoxicity on field-grown apple trees; type: in vivo; settings: 50% wettable powder, 2 and 1 pounds/100 gallons of water
# Description: as §3, §4, §5, §6, §7, §8, §9
SMILES,inhibition at 1 ppm (Aspergillus niger [1]) [%],inhibition at 10 ppm (Aspergillus niger [1]) [%],inhibition at 100 ppm (Aspergillus niger [1]) [%],inhibition at 1 ppm (Monilinia fructicola [2]) [%],Antibacterial Activity rating (Aerobacter aerogenes),Antibacterial Activity rating (Staphylococcus aureus),Antibacterial Activity rating (Xanthomonas vesicatoria),Agar Dilution Plate rating (Aspergillus niger [4]),Agar Dilution Plate rating (Fusarium lycopersici),Agar Dilution Plate rating (Monilinia fructicola [5]),Agar Dilution Plate rating (Pythium de Baryanum),Agar Dilution Plate rating (Rhizoctonia solani),Agar Dilution Plate rating [6],Agar Dilution Plate rating (Pseudomonas solaracaerum),Agar Dilution Plate rating [7],Agar Dilution Plate rating (Verticillium albo-atrum),disease control index [8],disease control index (Piricularia oryzae; 150 ppm),disease control index (Piricularia oryzae; 300 ppm),disease control index (Venturia inaequalis [9]),other results
"CN(C)CC(C)(CSC(=S)N(C)C)[N+](=O)[O-] (centres unmarked) [Example 7, 3-Dimethylamino-2-methyl-2-nitropropyl Dimethyldithiocarbamate]",0,100,100,0,9,9,5,0,0,5 (100% effectiveness of the test compound against the specified organism),0,5 (100% effectiveness of the test compound against the specified organism),5 (100% effectiveness of the test compound against the specified organism),0,5 (100% effectiveness of the test compound against the specified organism),5 (100% effectiveness of the test compound against the specified organism),2,2,2,5 and 0,inhibition at 10 ppm (Monilinia fructicola [2]): 100%; inhibition at 100 ppm (Monilinia fructicola [2]): 100%; inhibition at 100 ppm [3]: 0%; disease control index (Piricularia oryzae; 600 ppm): 4; disease control index (Piricularia oryzae; 1200 ppm): 5
"CN(C)C(=S)SC(c1ccc(Cl)cc1Cl)C(C(c1ccc(Cl)cc1Cl)N(C)C)[N+](=O)[O-] (centres unmarked) [Example 8, 1,3-Bis(2,4-dichlorophenyl)-3-dimethylamino-2-nitropropyl Dimethyldithiocarbamate]",–,–,–,–,0,5,0,0,0,5 (100% effectiveness of the test compound against the specified organism),0,0,0,0,0,5 (100% effectiveness of the test compound against the specified organism),5,–,–,5 and 4,disease control index (Phytophthora infestans; at 100 ppm): 5; disease control index (Phytophthora infestans; at 500 ppm): 5; disease control index (Piricularia oryzae; at 100 ppm): 5; disease control index (Piricularia oryzae; at 500 ppm): 5
"CN(C)C(=S)SC(C[N+](=O)[O-])c1ccccc1 (stereo not drawn) [Example 13, α-(Nitromethyl)benzyl Dimethyldithiocarbamate]",100,100,100,100,5,5,5,0,5 (100% effectiveness of the test compound against the specified organism),5 (100% effectiveness of the test compound against the specified organism),5 (100% effectiveness of the test compound against the specified organism),0,5 (100% effectiveness of the test compound against the specified organism),0,5 (100% effectiveness of the test compound against the specified organism),5 (100% effectiveness of the test compound against the specified organism),5,5,5,5,"inhibition at 10 ppm (Monilinia fructicola [2]): 100%; inhibition at 100 ppm (Monilinia fructicola [2]): 100%; inhibition at 100 ppm [3]: 100%; inhibition at 1 ppm [3]: 100%; inhibition at 10 ppm [3]: 100%; disease control index (Phytophthora infestans; 150 ppm): 5; disease control index (Phytophthora infestans; 300 ppm): 5; disease control index (Phytophthora infestans; 600 ppm): 5; disease control index (Phytophthora infestans; 1200 ppm): 5; disease control index (Piricularia oryzae; 600 ppm): 5; disease control index (Piricularia oryzae; 1200 ppm): 5; scab on trees (Venturia inaequalis [10]; 1 pound/100 gallons of water, end of season): trace of scab; scab on trees (Venturia inaequalis [10]; 2 pounds/100 gallons of water, all season): free of scab all season long; phytotoxicity [11]: No phytotoxicity"
"O=[N+]([O-])CC(SC(=S)N1CCCCC1)c1ccccc1 (stereo not drawn) [Example 16, α-(Nitromethyl)benzyl 1-Piperidinecarbodithioate]",–,–,–,–,–,–,–,–,–,–,–,–,–,–,–,–,5,5,5,5,–
"CC(C(SC(=S)N(C)C)c1ccccc1)[N+](=O)[O-] (stereo not drawn) [Example 18, α-(1-Nitroethyl)benzyl Dimethyldithiocarbamate]",–,–,–,–,0,5,0,0,5 (100% effectiveness of the test compound against the specified organism),5 (100% effectiveness of the test compound against the specified organism),5 (100% effectiveness of the test compound against the specified organism),5 (100% effectiveness of the test compound against the specified organism),5 (100% effectiveness of the test compound against the specified organism),0,5 (100% effectiveness of the test compound against the specified organism),5 (100% effectiveness of the test compound against the specified organism),5,–,–,5,disease control index (Phytophthora infestans; at 100 ppm): 5; disease control index (Phytophthora infestans; at 500 ppm): 5; disease control index (Piricularia oryzae; at 100 ppm): 5; disease control index (Piricularia oryzae; at 500 ppm): 5
"CN(C)C(=S)SC(C[N+](=O)[O-])c1ccc2c(c1)OCO2 (stereo not drawn) [Example 28, 3,4-(Methylenedioxy)-α-(nitromethyl)benzyl Dimethyldithiocarbamate]",100,100,100,100,9,5,5,0,0,5 (100% effectiveness of the test compound against the specified organism),5 (100% effectiveness of the test compound against the specified organism),0,5 (100% effectiveness of the test compound against the specified organism),0,5 (100% effectiveness of the test compound against the specified organism),5 (100% effectiveness of the test compound against the specified organism),5,0,0,5 and 0,inhibition at 10 ppm (Monilinia fructicola [2]): 100%; inhibition at 100 ppm (Monilinia fructicola [2]): 100%; inhibition at 100 ppm [3]: 100%; inhibition at 1 ppm [3]: 0%; inhibition at 10 ppm [3]: 0%; disease control index (Phytophthora infestans; at 100 ppm): 5; disease control index (Phytophthora infestans; at 500 ppm): 5; disease control index (Piricularia oryzae; 600 ppm): 5; disease control index (Piricularia oryzae; 1200 ppm): 5
